In article PMC11763059, “GENI as an AMPK Activator Binds α and γ Subunits and Improves the Memory Dysfunction of Alzheimer’s Disease Mouse Models via Autophagy and Neuroprotection” (Antioxidants, 2025):

What was measured:
[1] = molecular target: T1, AMPK-s6 (γ subunit- K309A) (Rattus norvegicus, UniProt P54645+P80385, K309A); experiment: SPR analysis, AMPK mutant s6; assay type: binding
T1 construct: His (N); made in house
Experimental: Mammalian AMPK subunits (His-α1, β1, and γ1) were cloned into a pET-3d vector, and protein expression and purification were similar to the literature.
SPR analysis was performed with a Biacore T200 instrument (GE Healthcare). Firstly, the purred His-tagged AMPK containing α1β1γ1 protein was captured onto an activated carboxymethylated 5 (CM5) chip using amine coupling to levels ranging from 4000 RU to 6000 RU. Secondly, GENI was dissolved in PBS-P buffer solution (0.05% (v/v) Tween 20 and PBS), and the concentration of GENI was 64 μM. Thirdly, the solution of GENI was diluted to 32 μM, 16 μM, 8 μM, 4 μM, 2 μM, 1 μM and 0.5 μM with PBS-P buffer solution. The sample was filtered by pumping through a […] membrane. A gradient concentration of GENI was injected at a flow rate of 30 μL/min in a running buffer (0.05% (v/v) Tween 20 and PBS). The data were analyzed with Biacore evaluation software (T200 version 2.0) and fitted to the 1:1 Langmuir binding model, and the kinetic parameters were derived.
The non-covalent interaction between drugs and proteins is an important way to exert drug efficacy, and its mode of action and binding affinity usually determine the utilization and biological activity of drugs. AMPK is a heterotrimer complex consisting of an α subunit containing the kinase domain and two regulatory subunits (β- and γ-). Different action sites have varied or even opposite pharmacological effects. The molecular mechanism of interaction between the protein and molecule should be investigated thoroughly. After co-incubation of GENI and AMPK, LC-MS/MS measurements were performed to predict the binding sites. As shown in Extended Data Figure S2, ASP148, ASP157 and ASP166 of the AMPK α subunits and LYS148, ASP156, LYS309, and ASP316 of the AMPK γ subunit were possible to the binding sites of GENI. […] Thus, all of these seven sites affected the binding of GENI and AMPK to varying degrees, and they were located in the C lobe kinase domain of the AMPK α subunit, and the CBS2 and CBS4 domain of the AMPK γ subunit, respectively.

p53 = tested on: T2, p53; experiment: Drug affinity responsive target stability (DARTS), p53; assay type: binding; details: 0.1–100 μM GENI, protein: pronase 100:1
T2 construct: endogenous in cells
Experimental: Cells were lysed by RIPA lysis buffer, and the protein concentration was measured. The lysate was divided into six groups. Before incubation with protease (protein: pronase = 50:1 w/w for PI3K and AMPK detection, 5:1 for MAPK detection, 100:1 for p53 detection) for 25 min in 25 °C, 0.1–100 μM GENI was added to lysates and incubated for 2 h at room temperature. The samples were mixed with loading buffer and then separated on 8% SDS-PAGE for immunoblotting analysis.

natural aging AD mice = experiment: Immunohistochemistry and Western blot of brain in naturally aged AD mice; assay type: in vivo; details: GENI 25 mg/kg, compared with aged group
Experimental: Each group had 10 mice. GENI was dissolved in ultrapure water and administered by gavage, whereas Dor was dissolved in normal saline. The pH was adjusted to pH 5 with 0.1 M hydrochloric acid to the clarified solution and administered by intraperitoneal injection. The dosing experiment also lasted 10 weeks. Animal behavioral experiments and sampling at the end of the animal experiment were performed as described above.
Firstly, the three mice of each group were subjected to heart perfusion at the end of the animal experiment, and the whole brain was removed and placed in 15 mL of 4% paraformaldehyde and stored at 4 °C for 24 h. Secondly, we changed 4% paraformaldehyde into 15% sucrose solution and stored the solution at 4 °C for 24 h. We then changed the solution to 30% sucrose solution to dehydrate for 2 days. Thirdly, the mouse brain tissue was embedded in a cryo-embedding medium, and about 80 slices with a thickness of 20 μm were cut in the hippocampus using a cryostat (Thermal Fisher, Shanghai, China). The sections of mice in each group were immunohistochemically stained with primary antibodies, such as neuronal nuclear anti gen (NeuN), ionized calcium-binding adapter molecule 1 (Iba-1), inducible nitric oxide synthase (iNOS, pro-inflammatory factors), synaptophysin (Syp), and glial fibrillary acidic protein (GFAP), and secondary antibody. The product number and usage ratios of primary and secondary antibodies are detailed in Supplementary Table S4. Finally, the sections were observed under an upright two-photon confocal microscope (Olympus BX61, Tokyo, Japan) and recorded by a camera. The pictures were digitized with ImageJ software V1.8.0.112 (National Institutes of Health, Bethesda, MD, USA).
Western blot analysis for p-AMPK α, AMPK α, p-mTOR, mTOR, p-ULK1, ULK1, and LC3-I/II was conducted according to the information described in the materials and methods section of Supplementary Information.
1.3. Western blot analysis. […]
The supernatants of each group were used as protein samples. For animal samples, an appropriate amount of tissue, such as cerebral cortex and hippocampus (50–100 mg), of each group was weighed, and we added lysis buffer with 1:9 ratios. After grinding and centrifuging, the supernatants of each group were used as protein samples. The protein concentration was measured with a BCA assay kit (Beijing Cowin Biotech Company, Beijing, China). Sodium dodecyl sulphate polyacrylamide gel electrophoresis (SDS-PAGE) was used to separate proteins (15 μg), which were transferred to PVDF membranes. The membrane was incubated with primary and secondary antibodies (Supplementary Table S5 for details). Antigens were visualised using a high-sensitivity chemiluminescence detection kit (Beijing Cowin Biotech Company, Beijing, China). Bands were quantitatively measured using ImageJ software (National Institutes of Health, Bethesda, MD, USA).

T1 sequence (P54645 13-559 limits assumed): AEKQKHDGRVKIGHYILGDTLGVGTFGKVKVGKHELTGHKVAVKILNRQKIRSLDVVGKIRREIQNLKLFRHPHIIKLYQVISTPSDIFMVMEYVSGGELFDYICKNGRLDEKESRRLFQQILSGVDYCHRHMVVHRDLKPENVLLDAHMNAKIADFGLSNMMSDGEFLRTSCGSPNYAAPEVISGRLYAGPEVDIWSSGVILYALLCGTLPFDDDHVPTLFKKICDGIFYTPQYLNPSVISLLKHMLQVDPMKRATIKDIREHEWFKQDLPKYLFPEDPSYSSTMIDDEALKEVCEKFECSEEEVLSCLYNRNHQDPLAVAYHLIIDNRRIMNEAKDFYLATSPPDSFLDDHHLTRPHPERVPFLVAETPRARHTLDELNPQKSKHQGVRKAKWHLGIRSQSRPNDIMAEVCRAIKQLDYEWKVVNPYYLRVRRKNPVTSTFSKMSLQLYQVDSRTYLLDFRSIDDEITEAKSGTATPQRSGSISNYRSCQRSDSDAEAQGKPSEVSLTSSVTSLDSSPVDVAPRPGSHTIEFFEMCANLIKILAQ
T1 sequence (P80386 whole entry partner): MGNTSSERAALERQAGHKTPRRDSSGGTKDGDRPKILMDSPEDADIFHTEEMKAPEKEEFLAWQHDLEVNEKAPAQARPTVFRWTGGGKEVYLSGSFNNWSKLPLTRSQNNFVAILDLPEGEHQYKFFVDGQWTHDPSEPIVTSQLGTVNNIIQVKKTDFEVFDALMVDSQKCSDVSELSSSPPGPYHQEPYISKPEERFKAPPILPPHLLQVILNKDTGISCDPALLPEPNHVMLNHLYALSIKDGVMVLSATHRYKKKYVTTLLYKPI
T1 sequence (P80385 whole entry K309A): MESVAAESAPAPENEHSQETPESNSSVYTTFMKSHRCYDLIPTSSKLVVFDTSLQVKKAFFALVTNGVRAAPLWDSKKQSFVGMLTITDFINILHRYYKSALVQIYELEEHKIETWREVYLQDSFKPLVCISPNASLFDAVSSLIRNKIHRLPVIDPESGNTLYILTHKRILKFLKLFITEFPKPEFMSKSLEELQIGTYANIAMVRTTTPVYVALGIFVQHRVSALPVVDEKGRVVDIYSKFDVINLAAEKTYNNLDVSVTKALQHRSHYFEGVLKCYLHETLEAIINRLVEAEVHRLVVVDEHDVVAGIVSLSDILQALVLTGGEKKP

Structure (SMILES): CC(C)CCOC(=O)C1=CO[C@@H](O[C@@H]2O[C@H](CO)[C@@H](O)[C@H](O)[C@H]2O)C2C(CO)=CCC12 (some centres unmarked) [GENI, Geniposidic 4-isoamyl ester]
- Kd ([1]; SPR): 6.21 µM
- kon ([1]; SPR, association rate, read-out: Ka): 806 M⁻¹ s⁻¹
- response (RU) in SPR ([1]; point mutation of K309, versus wild-type): significantly reduced
- stability of p53 against pronase (DARTS) (p53): no obvious effect
- APP and Tau of hippocampus CA, DG, and cerebral cortex, Aβ and Tau phosphorylation of cerebral cortex (natural aging AD mice): significantly decreased
